Holding throughout (assay): relative viability (nuclei count vs DMSO), 5 days (fraction); higher = more cells survive
Compound in the test “Erlotinib + Trametinib”: C#Cc1cccc(Nc2ncnc3cc(OCCOC)c(OCCOC)cc23)c1 [Erlotinib] + CC(=O)Nc1cccc(-n2c(=O)n(C3CC3)c(=O)c3c(Nc4ccc(I)cc4F)n(C)c(=O)c(C)c32)c1 [Trametinib] (partner 0.02 µM)
An outline of the steps:
(§1)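 Medians of duplicate plates are given as relative viability. That measure is the nuclei count in treated wells divided by the count in vehicle wells. Counts were taken on 4× images of lung cancer cell lines in 1536-well plates, 5 days after pin-tool dosing the day after seeding with one drug alone or a fixed anchor-drug dose plus five library-drug doses (not always all listed) in √10 steps.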

Compound in the test “Erlotinib + Phenformin”: C#Cc1cccc(Nc2ncnc3cc(OCCOC)c(OCCOC)cc23)c1 [Erlotinib] + N=C(N)NC(=N)NCCc1ccccc1 [Phenformin] (partner 250 µM)
Summed up: as §1

Compound in the test “AT9283 + Alpelisib”: O=C(Nc1c[nH]nc1-c1nc2ccc(CN3CCOCC3)cc2[nH]1)NC1CC1 [AT9283] + Cc1nc(NC(=O)N2CCC[C@H]2C(N)=O)sc1-c1ccnc(C(C)(C)C(F)(F)F)c1 [Alpelisib] (partner 2 µM)
An outline of the steps: as §1

As for LC-2-ad, the relative viability with Erlotinib + Trametinib (first compound 0.02 µM) worked out at 0.902; with Erlotinib + Trametinib (first compound 0.2 µM), 0.907; in the test with Erlotinib + Trametinib (first compound 0.6325 µM), 0.87; in the test with Erlotinib + Trametinib (first compound 2 µM), 0.775; with Erlotinib + Phenformin (first compound 0.02 µM) it was 0.566; with Erlotinib + Phenformin (first compound 0.2 µM), 0.643. For the same cell line, the relative viability is 0.592 with Erlotinib + Phenformin (first compound 0.6325 µM); 0.534 with Erlotinib + Phenformin (first compound 2 µM); 0.933 in the test with AT9283 + Alpelisib (first compound 0.003 µM); 0.319 with AT9283 + Alpelisib (first compound 0.03 µM); 0.106 with AT9283 + Alpelisib (first compound 0.09487 µM); 0.107 with AT9283 + Alpelisib (first compound 0.3 µM).

For NCI-H2085, the relative viability came out at 0.494 in the test with Erlotinib + Trametinib (first compound 0.02 µM); 0.496 with Erlotinib + Trametinib (first compound 0.2 µM); 0.513 in the test with Erlotinib + Trametinib (first compound 0.6325 µM); 0.306 with Erlotinib + Trametinib (first compound 2 µM); 0.762 with Erlotinib + Phenformin (first compound 0.02 µM); 0.493 with Erlotinib + Phenformin (first compound 0.2 µM). Besides, the relative viability is 0.528 with Erlotinib + Phenformin (first compound 0.6325 µM); 0.472 with Erlotinib + Phenformin (first compound 2 µM); 0.946 in the test with AT9283 + Alpelisib (first compound 0.003 µM); 0.894 in the test with AT9283 + Alpelisib (first compound 0.03 µM); 0.615 in the test with AT9283 + Alpelisib (first compound 0.09487 µM); 0.411 with AT9283 + Alpelisib (first compound 0.3 µM).

In the case of NCI-H650, the relative viability with Erlotinib + Trametinib (first compound 0.02 µM) came out at 0.964; in the test with Erlotinib + Trametinib (first compound 0.2 µM), 0.985; with Erlotinib + Trametinib (first compound 0.6325 µM), 0.919; in the test with Erlotinib + Trametinib (first compound 2 µM) it was 0.963; with Erlotinib + Phenformin (first compound 0.02 µM), 0.424; in the test with Erlotinib + Phenformin (first compound 0.2 µM), 0.462. Besides, the relative viability with Erlotinib + Phenformin (first compound 0.6325 µM) was determined as 0.449; with Erlotinib + Phenformin (first compound 2 µM), 0.479; with AT9283 + Alpelisib (first compound 0.003 µM), 1; with AT9283 + Alpelisib (first compound 0.03 µM), 0.951; with AT9283 + Alpelisib (first compound 0.09487 µM), 0.252; with AT9283 + Alpelisib (first compound 0.3 µM), 0.162.

Take EMC-BAC-2: the relative viability is 0.765 with Erlotinib + Trametinib (first compound 0.2 µM); 0.901 with Erlotinib + Trametinib (first compound 0.6325 µM); 0.739 with Erlotinib + Trametinib (first compound 2 µM); 0.578 with Erlotinib + Phenformin (first compound 0.02 µM); 0.571 with Erlotinib + Phenformin (first compound 0.2 µM); 0.559 with Erlotinib + Phenformin (first compound 0.6325 µM). Further, the relative viability in the test with Erlotinib + Phenformin (first compound 2 µM) worked out at 0.502; with AT9283 + Alpelisib (first compound 0.003 µM), 0.775; in the test with AT9283 + Alpelisib (first compound 0.03 µM), 0.499; with AT9283 + Alpelisib (first compound 0.09487 µM) it was 0.173; in the test with AT9283 + Alpelisib (first compound 0.3 µM) it was 0.157.

NCI-H1395: the relative viability with Erlotinib + Trametinib (first compound 0.02 µM) was found to be 1.1; in the test with Erlotinib + Trametinib (first compound 0.2 µM), 0.993; with Erlotinib + Trametinib (first compound 0.6325 µM), 1.02; with Erlotinib + Trametinib (first compound 2 µM), 0.989; with Erlotinib + Phenformin (first compound 0.02 µM) it was 0.503; with Erlotinib + Phenformin (first compound 0.2 µM), 0.462. In addition, the relative viability came out at 0.483 in the test with Erlotinib + Phenformin (first compound 0.6325 µM); 0.463 with Erlotinib + Phenformin (first compound 2 µM); 1 in the test with AT9283 + Alpelisib (first compound 0.003 µM); 0.804 with AT9283 + Alpelisib (first compound 0.03 µM); 0.409 with AT9283 + Alpelisib (first compound 0.09487 µM); 0.431 with AT9283 + Alpelisib (first compound 0.3 µM).

On to NCI-H322M, for which the relative viability with Erlotinib + Trametinib (first compound 0.02 µM) turned out to be 0.472; in the test with Erlotinib + Trametinib (first compound 0.2 µM), 0.461; with Erlotinib + Trametinib (first compound 0.6325 µM) it was 0.462; in the test with Erlotinib + Trametinib (first compound 2 µM), 0.445; in the test with Erlotinib + Phenformin (first compound 0.02 µM), 0.816; with Erlotinib + Phenformin (first compound 0.2 µM), 0.592. Further, the relative viability with Erlotinib + Phenformin (first compound 0.6325 µM) is 0.539; in the test with Erlotinib + Phenformin (first compound 2 µM) it was 0.421; in the test with AT9283 + Alpelisib (first compound 0.003 µM) it was 0.846; with AT9283 + Alpelisib (first compound 0.03 µM) it was 0.906; with AT9283 + Alpelisib (first compound 0.09487 µM) it was 0.544; with AT9283 + Alpelisib (first compound 0.3 µM), 0.396.

For SK-MES-1, the relative viability with Erlotinib + Trametinib (first compound 0.02 µM) turned out to be 0.494; with Erlotinib + Trametinib (first compound 0.2 µM), 0.345; with Erlotinib + Trametinib (first compound 0.6325 µM), 0.347; with Erlotinib + Trametinib (first compound 2 µM) it was 0.312; with Erlotinib + Phenformin (first compound 0.02 µM) it was 0.705; with Erlotinib + Phenformin (first compound 0.2 µM) it was 0.599. In addition, the relative viability was 0.385 with Erlotinib + Phenformin (first compound 0.6325 µM); 0.368 with Erlotinib + Phenformin (first compound 2 µM); 0.807 in the test with AT9283 + Alpelisib (first compound 0.003 µM); 0.859 with AT9283 + Alpelisib (first compound 0.03 µM); 0.509 in the test with AT9283 + Alpelisib (first compound 0.09487 µM); 0.173 in the test with AT9283 + Alpelisib (first compound 0.3 µM).

Take NCI-H727: the relative viability with Erlotinib + Trametinib (first compound 0.02 µM) was 0.392; in the test with Erlotinib + Trametinib (first compound 0.2 µM), 0.387; with Erlotinib + Trametinib (first compound 0.6325 µM), 0.351; with Erlotinib + Trametinib (first compound 2 µM), 0.379; with Erlotinib + Phenformin (first compound 0.02 µM) it was 0.572; in the test with Erlotinib + Phenformin (first compound 0.6325 µM), 0.639. Further, the relative viability with Erlotinib + Phenformin (first compound 2 µM) worked out at 0.404; with AT9283 + Alpelisib (first compound 0.003 µM) it was 0.669; with AT9283 + Alpelisib (first compound 0.03 µM) it was 0.434; in the test with AT9283 + Alpelisib (first compound 0.09487 µM) it was 0.313; with AT9283 + Alpelisib (first compound 0.3 µM), 0.235.

NCI-H838: the relative viability with Erlotinib + Trametinib (first compound 0.02 µM) amounted to 0.587; with Erlotinib + Trametinib (first compound 0.2 µM), 0.431; in the test with Erlotinib + Trametinib (first compound 0.6325 µM) it was 0.586; with Erlotinib + Trametinib (first compound 2 µM) it was 0.509; in the test with Erlotinib + Phenformin (first compound 0.02 µM), 0.668; with Erlotinib + Phenformin (first compound 0.2 µM), 0.509. Also, the relative viability turned out to be 0.694 with Erlotinib + Phenformin (first compound 0.6325 µM); 0.493 with Erlotinib + Phenformin (first compound 2 µM); 1.06 with AT9283 + Alpelisib (first compound 0.003 µM); 0.367 with AT9283 + Alpelisib (first compound 0.03 µM); 0.262 with AT9283 + Alpelisib (first compound 0.09487 µM); 0.269 with AT9283 + Alpelisib (first compound 0.3 µM).

Regarding LXF-289, the relative viability came out at 0.639 with Erlotinib + Trametinib (first compound 0.02 µM); 0.672 with Erlotinib + Trametinib (first compound 0.2 µM); 0.647 with Erlotinib + Trametinib (first compound 0.6325 µM); 0.684 in the test with Erlotinib + Trametinib (first compound 2 µM); 0.54 with Erlotinib + Phenformin (first compound 0.02 µM); 0.496 with Erlotinib + Phenformin (first compound 0.6325 µM). Besides, the relative viability in the test with Erlotinib + Phenformin (first compound 2 µM) worked out at 0.476; with AT9283 + Alpelisib (first compound 0.003 µM), 0.964; in the test with AT9283 + Alpelisib (first compound 0.03 µM), 1.01; in the test with AT9283 + Alpelisib (first compound 0.09487 µM), 0.132; with AT9283 + Alpelisib (first compound 0.3 µM) it was 0.105.

The values above are taken from the supplement of paper PMC10307832.
